Experimental data reported in US4013794A, “O-alkyl-S-alkyl-O-phenyl phosphates and insecticidal and acaricidal method of use” (priority 1973, dated 1977).

Legend:
[1] = test system: peach aphids (Myzus persicae); test: Myzus Test (contact action); assay type: in vivo; conditions: 24 h, after 1 day, read-out: Degree of destruction in % after 1 day; for mortality at 0.02 % strength: 0.02 % active compound; for mortality at 0.1 % strength: 0.1 % active compound
Procedure: (§1) Solvent: 3 parts by weight Acetone
(§2) Emulsifier: 1 part by weight Alkylaryl polyglycol ether
(§3) To produce a suitable preparation of active compound, 1 part by weight of the active compound is mixed with the stated amount of solvent and the stated amount of emulsifier and the concentrate is diluted with water to the desired concentration.
Cabbage plants (Brassica oleracea) which have been heavily infested with peach aphids (Myzus persicae) are sprayed with the preparation of the active compound until dripping wet.
After the specified periods to time, the degree of destruction is determined as a percentage: 100 % means that all the aphids are killed whereas 0 % means that none of the aphids are killed.

warm-blooded animals = conditions: prior-art compounds; cited from earlier work
[2] = test system: caterpillars of the diamond-back moth (Plutella maculipennis); test: Plutella Test; assay type: in vivo; conditions: 72 h, after 3 days, read-out: Degree of destruction in % after 3 days; for mortality at 0.004 % strength: 0.004 % active compound; for mortality at 0.02 % strength: 0.02 % active compound; for mortality at 0.1 % strength: 0.1 % active compound; for mortality at 0.0008 % strength: 0.0008 % active compound
Procedure: as §1, §2, §3
Cabbage leaves (Brassica oleracea) are sprayed with the preparation of the active compound until dew moist and are then infested with caterpillars of the diamond-back moth (Plutella maculipennis).
After the specified periods of time, the degree of destruction is determined as a percentage: 100 % means that all the caterpillars are killed whereas 0 % means that none of the caterpillars are killed.

[3] = test system: two-spotted spider mite (Tetranychus urticae); test: Tetranychus test (resistant); assay type: in vivo; conditions: 48 h, after 2 days, read-out: Degree of destruction in % after 2 days; for mortality at 0.01 % strength: 0.01 % active compound concentration; for mortality at 0.1 % strength: 0.1 % active compound concentration
Procedure: Solvent: 3 parts by weight of acetone
Emulsifier: 1 part by weight of alkylaryl polyglycol ether
To produce a suitable preparation of active compound, 1 part by weight of the active compound was mixed with the stated amount of solvent and the stated amount of emulsifier and the concentrate was diluted with water to the desired concentration.
These bean plants were heavily infested with the two-spotted spider mite (Tetranychus urticae) in all stages of development.
After the specified periods of time, the effectiveness of the preparation of active compounds was determined by counting the dead mites. The degree of destruction thus obtained is expressed as a percentage: 100% means that all the spider mites were killed, whereas 0% means that none of the spider mites were killed.

[4] = Toxicity test (peroral), albino rat; conditions: in vivo, po, evaluation after 7 days, read-out: LD50 values (in mg/kg of body weight)
Procedure: Test animal: Albino rat (Rattus norvegicus)
To produce a suitable preparation of active compound, 3 parts by weight of active compound were mixed with 2.8 parts by weight of highly dispersible silica and 4.2 parts by weight of talc. Suspensions which contained, in 1 ml of liquid, the amount of active compound to be applied per 100 g of animal weight, were prepared from the above active-compound concentrate, with a little added powdered vegetable gum, by grinding with water. Dosing was effected volumetrically after weighing the test animals. A steel, knob-ended probe was used for oral administration. The evaluation was carried out in each case after the end of the above-mentioned time interval, calculated from the administration of the active compound.
The LD50 values (dose of active compound at which 50% of the treated animals were killed) were determined in the usual manner from the mortality figures of the doses, which were varied in geometrical progression.

[5] = test system: larvae of mustard beetles (Phaedon cochleariae); test: Phaedon-Larvae-Test; assay type: in vivo; conditions: in Brassica, 72 h, after 3 days, read-out: Degree of destruction in % after 3 days; for mortality at 0.004 % strength: 0.004 % active compound; for mortality at 0.02 % strength: 0.02 % active compound; for mortality at 0.1 % strength: 0.1 % active compound
Procedure: as §1, §2
To produce a suitable preparation of the particular active compound, 1 part by weight of such active compound is mixed with the stated amount of solvent and the stated amount of emulsifier, and the resulting concentrate is diluted with water to the desired final concentration.
Cabbage leaves (Brassica oleracea) are sprayed with the preparation of the given active compound until dripping wet and then infested with the larvae of mustard beetles (Phaedon cochleariae).
After specified periods of time, the degree of destruction is determined as a percentage: 100 % means that all the beetle larvae are killed, 0 % means that none of the beetle larvae are killed. The active compounds, the concentrations used, the evaluation time and the results obtained can be seen from the following Table 5: […]

[6] = test system: fly larvae (Lucilia cuprina res.); test: Test with parasitic fly larvae; assay type: in vivo; conditions: after 24 hours, read-out: Degree of destruction in %
Procedure: Solvent: 35 parts by weight of ethylene polyglycol monomethyl ether
Emulsifier: 35 parts by weight of nonylphenol polyglycol ether.
To produce a suitable preparation of active compound, 30 parts by weight of the active substance in question were mixed with the stated amount of solvent which contained the above-mentioned proportion of emulsifier and the concentrate thus obtained was diluted with water to the desired concentration.
About 20 fly larvae (Lucilia cuprina) were introduced into a test tube which contained approximately 2 ml of horse muscle. 0.5 ml of the preparation of active compound was applied to this horse meat. After 24 hours, the degree of destruction was determined in %. 100% means that all the larvae had been killed and 0% means that no larvae had been killed.

CCOP(=S)(Oc1ccc(S(C)(=O)=O)cc1)SC (stereo not drawn) [drawing 27, reference compound]
mortality at 0.02 % strength [1]: 0%
mortality at 0.1 % strength [1]: 35%

CCOP(=S)(OCC)Oc1ccc(S(=O)(=O)CCl)cc1 [Compound A, O,O-diethyl-O-(4-chloromethylsulfonylphenyl)-thionophosphoric acid ester]
toxicity towards warm-blooded animals (warm-blooded animals): high toxicity

CCCSP(=S)(OCC)Oc1ccc(S(=O)(=O)CCl)cc1 (stereo not drawn) [drawing 19]
mortality at 0.004 % strength [2]: 100%
mortality at 0.02 % strength [2]: 100%
mortality at 0.1 % strength [2]: 100%

CCCSP(=S)(OCC)Oc1ccc(S(C)(=O)=O)cc1 (stereo not drawn) [drawing 18]
mortality at 0.004 % strength [2]: 100%
mortality at 0.02 % strength [2]: 100%
mortality at 0.1 % strength [2]: 100%

CCCSP(=S)(OCC)Oc1ccc(S(=O)(=O)CCl)cc1Cl (stereo not drawn) [drawing 7]
mortality at 0.01 % strength [3]: 60%
mortality at 0.1 % strength [3]: 100%

CCCSP(=S)(OCC)Oc1ccc(S(=O)(=O)CCl)cc1 (stereo not drawn) [drawing 11]
LD50 at 168 h [4]: ~250 mg/kg

CCCSP(=S)(OCC)Oc1ccc(S(=O)(=O)CCl)cc1Cl (stereo not drawn) [drawing 31]
mortality at 0.02 % strength [1]: 55%
mortality at 0.1 % strength [1]: 100%

CCCSP(=S)(OCC)Oc1ccc(S(C)(=O)=O)cc1 (stereo not drawn) [drawing 28]
mortality at 0.02 % strength [1]: 60%
mortality at 0.1 % strength [1]: 100%

CCCSP(=S)(OCC)Oc1ccc(S(C)(=O)=O)cc1Br (stereo not drawn) [drawing 26]
mortality at 0.004 % strength [5]: 100%
mortality at 0.02 % strength [5]: 100%
mortality at 0.1 % strength [5]: 100%

CCOP(=S)(OCC)Oc1ccc(S(=O)(=O)CCl)cc1 [drawing 6, reference compound]
mortality at 0.01 % strength [3]: 0%
mortality at 0.1 % strength [3]: 50%

CCCSP(=S)(OCC)Oc1ccc(Cl)cc1Cl (stereo not drawn) [drawing 23, reference compound]
mortality at 0.004 % strength [5]: 20%
mortality at 0.02 % strength [5]: 100%
mortality at 0.1 % strength [5]: 100%

CCCSP(=S)(OCC)Oc1ccc(S(=O)(=O)CCl)cc1 (stereo not drawn) [drawing 30]
mortality at 0.02 % strength [1]: 70%
mortality at 0.1 % strength [1]: 100%

CCOP(=S)(Oc1ccc(S(C)(=O)=O)cc1)SC (stereo not drawn) [drawing 24]
mortality at 0.004 % strength [5]: 15%
mortality at 0.02 % strength [5]: 100%
mortality at 0.1 % strength [5]: 100%

CCCSP(=S)(OCC)Oc1ccc(S(C)(=O)=O)cc1 (stereo not drawn) [drawing 25]
mortality at 0.004 % strength [5]: 100%
mortality at 0.02 % strength [5]: 100%
mortality at 0.1 % strength [5]: 100%

CCOP(=S)(OCC)Oc1ccc(S(=O)(=O)CCl)cc1 [drawing 8, reference compound]
LD50 at 168 h [4]: 2.5 to 5 mg/kg

CCCSP(=S)(OCC)Oc1ccc(S(C)(=O)=O)cc1Cl (stereo not drawn) [drawing 29]
mortality at 0.02 % strength [1]: 90%
mortality at 0.1 % strength [1]: 100%

CCCSP(=S)(OCC)Oc1ccc(SC(F)C(=O)OCC)cc1 (stereo not drawn) [drawing 13]
LD50 at 168 h [4]: 100 to 250 mg/kg

CCCSP(=S)(OCC)Oc1ccc(S(C)(=O)=O)cc1Cl (stereo not drawn) [drawing 9]
LD50 at 168 h [4]: 50 to 100 mg/kg

CCOP(=S)(Oc1ccc(S(C)(=O)=O)cc1)SC (stereo not drawn) [drawing 17, reference compound]
mortality at 0.004 % strength [2]: 0%
mortality at 0.02 % strength [2]: 85%
mortality at 0.1 % strength [2]: 100%

CCCSP(=S)(OCC)Oc1ccc(SC(F)C(=O)OCC)cc1 (stereo not drawn) [drawing 16]
mortality at 10 ppm [6]: 0%
mortality at 30 ppm [6]: > 50%
mortality at 100 ppm [6]: 100%

CCCSP(=S)(OCC)Oc1ccc(Cl)cc1Cl (stereo not drawn) [drawing 21]
mortality at 0.0008 % strength [2]: 0%
mortality at 0.004 % strength [2]: 100%
mortality at 0.02 % strength [2]: 100%
mortality at 0.1 % strength [2]: 100%

CCCSP(=S)(OCC)Oc1ccc(S(C)(=O)=O)cc1Br (stereo not drawn) [drawing 22]
mortality at 0.0008 % strength [2]: 90%
mortality at 0.004 % strength [2]: 100%
mortality at 0.02 % strength [2]: 100%
mortality at 0.1 % strength [2]: 100%

CCCSP(=S)(OCC)Oc1ccc(S(=O)(=O)CCl)cc1Cl (stereo not drawn) [drawing 12]
LD50 at 168 h [4]: 100 to 250 mg/kg

CCCSP(=S)(OCC)Oc1ccc(S(=O)(=O)CCl)cc1 (stereo not drawn) [drawing 14]
mortality at 1 ppm [6]: 0%
mortality at 10 ppm [6]: 100%
mortality at 30 ppm [6]: 100%
mortality at 100 ppm [6]: 100%

CCCSP(=S)(OCC)Oc1ccc(S(C)(=O)=O)cc1Br (stereo not drawn) [drawing 10]
LD50 at 168 h [4]: 50 to 100 mg/kg

CCCSP(=S)(OCC)Oc1ccc(S(C)(=O)=O)cc1Cl (stereo not drawn) [drawing 15]
mortality at 1 ppm [6]: 0%
mortality at 3 ppm ([6]; 3 ppm): 100%
mortality at 10 ppm [6]: 100%
mortality at 30 ppm [6]: 100%
mortality at 100 ppm [6]: 100%

CCCSP(=S)(OCC)Oc1ccc(S(C)(=O)=O)cc1Cl (stereo not drawn) [drawing 20]
mortality at 0.0008 % strength [2]: 100%
mortality at 0.004 % strength [2]: 100%
mortality at 0.02 % strength [2]: 100%
mortality at 0.1 % strength [2]: 100%
